Data reported in ChEMBL document CHEMBL3813666, “Discovery of 3-benzyl-1,3-benzoxazine-2,4-dione analogues as allosteric mitogen-activated kinase kinase (MEK) inhibitors and anti-enterovirus 71 (EV71) agents” (Bioorg Med Chem, 2016).
Active and inactive are the calls of the source. No cut-off for these calls is given here.

How the values were obtained:
[1] = biological target: Serine/threonine-protein kinase B-raf (Homo sapiens, UniProt P15056, Y340D/Y341D)
Enterovirus A71 [2] = experiment: Inhibition of VP1 expression in human rhabdomyosarcoma cells infected with EV71 BC08 GU475127 pre-treated for 1 hr followed by viral infection measured after 24 hrs by western blotting analysis
[3] = Cytotoxicity activity against human rhabdomyosarcoma cells after 24 hrs by MTT assay; type: cell-based, Rhabdomyosarcoma cell
[4] = biological target: Dual specificity mitogen-activated protein kinase kinase; MEK1/2 (Homo sapiens) (UniProt P36507+Q02750); experiment: Inhibition of MEK1/2 phosphorylation in human rhabdomyosarcoma cells infected with EV71 BC08 GU475127 at 6.25 to 25 uM pre-treated for 1 hr followed by viral infection measured after 24 hrs by western blotting analysis
[5] = Therapeutic index, ratio of CC50 for human rhabdomyosarcoma cells to EC50 for EV71 BC08 GU475127 infected in human rhabdomyosarcoma cells; conditions: read-out: Ratio CC50/EC50
Enterovirus A71 [6] = experiment: Antiviral activity against EV71 BC08 GU475127 infected in human rhabdomyosarcoma cells assessed as reduction in viral induced cytopathic effect measured after 24 hrs by phase-contrast microscopy; type: functional, organism-based; conditions: Enterovirus A, BC08 GU475127, 24 h
[7] = Non-competitive inhibition of N-terminal GST-tagged human BRAF/MEK1/RAF1 Y340D/Y341D double mutant measured after 2 hrs in presence of 300 uM of ATP by TR-FRET assay
[8] = Non-competitive inhibition of N-terminal GST-tagged human BRAF/MEK1/RAF1 Y340D/Y341D double mutant measured after 2 hrs in presence of 100 uM of ATP by TR-FRET assay
[9] = Non-competitive inhibition of N-terminal GST-tagged human BRAF/MEK1/RAF1 Y340D/Y341D double mutant measured after 2 hrs in presence of 33.33 uM of ATP by TR-FRET assay
[10] = biological target: Dual specificity mitogen-activated protein kinase kinase 1 (Homo sapiens) (UniProt Q02750); conditions: at 6.25 to 25 µM
Dual specificity mitogen-activated protein kinase kinase 1 (Homo sapiens), sequence (Q02750 whole entry): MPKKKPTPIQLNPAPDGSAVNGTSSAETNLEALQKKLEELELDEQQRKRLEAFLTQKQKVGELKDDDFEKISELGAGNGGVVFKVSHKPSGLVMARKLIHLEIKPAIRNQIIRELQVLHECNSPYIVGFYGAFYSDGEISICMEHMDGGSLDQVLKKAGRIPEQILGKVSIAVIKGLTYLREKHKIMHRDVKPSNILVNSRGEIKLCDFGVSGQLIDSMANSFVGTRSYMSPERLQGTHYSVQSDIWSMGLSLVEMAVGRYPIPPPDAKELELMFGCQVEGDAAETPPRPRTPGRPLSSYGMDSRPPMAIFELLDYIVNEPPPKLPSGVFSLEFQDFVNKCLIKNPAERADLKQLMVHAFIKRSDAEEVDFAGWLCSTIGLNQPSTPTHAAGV

Serine/threonine-protein kinase B-raf, sequence (P15056 whole entry, looked up, stated change not applied): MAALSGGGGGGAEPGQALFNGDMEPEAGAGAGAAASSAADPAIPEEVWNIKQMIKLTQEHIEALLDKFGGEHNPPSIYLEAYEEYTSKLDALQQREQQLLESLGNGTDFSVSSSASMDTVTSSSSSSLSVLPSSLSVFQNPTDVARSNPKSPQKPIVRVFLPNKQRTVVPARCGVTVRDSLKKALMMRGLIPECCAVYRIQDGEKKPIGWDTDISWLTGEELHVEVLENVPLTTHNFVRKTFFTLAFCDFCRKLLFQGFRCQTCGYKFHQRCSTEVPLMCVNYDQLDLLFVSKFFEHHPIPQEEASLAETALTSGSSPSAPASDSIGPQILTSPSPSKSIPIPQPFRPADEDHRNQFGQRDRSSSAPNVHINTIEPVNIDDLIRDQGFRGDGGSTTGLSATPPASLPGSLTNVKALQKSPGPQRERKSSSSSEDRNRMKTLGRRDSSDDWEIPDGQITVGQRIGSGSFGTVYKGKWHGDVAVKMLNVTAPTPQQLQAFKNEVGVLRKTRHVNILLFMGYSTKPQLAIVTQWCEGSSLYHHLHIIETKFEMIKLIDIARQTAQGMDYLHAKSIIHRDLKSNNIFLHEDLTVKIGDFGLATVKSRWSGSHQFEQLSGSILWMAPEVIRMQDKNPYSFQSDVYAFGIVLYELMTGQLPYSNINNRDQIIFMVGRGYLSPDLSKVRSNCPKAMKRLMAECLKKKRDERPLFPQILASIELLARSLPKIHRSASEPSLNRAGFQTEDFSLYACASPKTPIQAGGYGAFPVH
Dual specificity mitogen-activated protein kinase kinase; MEK1/2 (Homo sapiens), sequence (P36507 whole entry, looked up): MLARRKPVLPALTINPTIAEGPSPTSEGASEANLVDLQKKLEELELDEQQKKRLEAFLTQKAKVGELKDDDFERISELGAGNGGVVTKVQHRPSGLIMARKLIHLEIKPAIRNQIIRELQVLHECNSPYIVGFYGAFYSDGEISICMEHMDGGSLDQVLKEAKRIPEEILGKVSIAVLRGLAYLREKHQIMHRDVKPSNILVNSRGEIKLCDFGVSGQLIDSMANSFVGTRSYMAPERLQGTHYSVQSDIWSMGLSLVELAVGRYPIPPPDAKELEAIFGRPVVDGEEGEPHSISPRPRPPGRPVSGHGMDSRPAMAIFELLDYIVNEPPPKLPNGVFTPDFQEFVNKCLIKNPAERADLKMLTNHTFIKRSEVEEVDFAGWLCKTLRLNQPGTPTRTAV
Dual specificity mitogen-activated protein kinase kinase; MEK1/2 (Homo sapiens), sequence (Q02750 whole entry, looked up): as the sequence (Q02750 whole entry) above

Compound	IC50 [1] [nM]	also measured
CN(C)C(=O)Oc1ccc2c(=O)n(Cc3cccc(NS(C)(=O)=O)c3F)c(=O)oc2c1	300	–
COc1ccc2c(=O)n(Cc3cccc(NS(=O)(=O)NCCC#N)c3F)c(=O)oc2c1	> 10000	–
CN(C)C(=O)Oc1ccc2c(=O)n(Cc3cccc(NS(C)(=O)=O)c3)c(=O)oc2c1	5920	–
CC(=O)Nc1cccc(Cn2c(=O)oc3cc(OC(=O)N(C)C)ccc3c2=O)c1	> 10000	–
CCS(=O)(=O)Oc1ccc2c(=O)n(Cc3cccc(NS(=O)(=O)NC)c3F)c(=O)oc2c1	670	–
CN(C)C(=O)Oc1ccc2c(=O)n(Cc3ccc(F)cc3)c(=O)oc2c1	> 10000	–
CCC(=O)Oc1ccc2c(=O)n(Cc3cccc(NS(=O)(=O)NC)c3F)c(=O)oc2c1	230	–
CN(C)C(=O)Oc1ccc2c(=O)n(Cc3ccccc3F)c(=O)oc2c1	> 10000	–
CS(=O)(=O)Nc1cccc(Cn2c(=O)oc3cc(OC(=O)c4ccccc4)ccc3c2=O)c1F	> 10000	–
O=C(NOC[C@H](O)CO)c1ccc(F)c(F)c1Nc1ccc(I)cc1F	–	inhibition (Enterovirus A71 [2]): Dose-dependent effect
CC(C)NS(=O)(=O)Nc1cccc(Cn2c(=O)oc3cc(OC(=O)N(C)C)ccc3c2=O)c1F	210	–
CN(C)C(=O)Oc1ccc2c(=O)n(Cc3cccc(NS(=O)(=O)NCCC#N)c3F)c(=O)oc2c1	60	CC50 at 24 h [3]: > 100 µM; inhibition [4]: Active; inhibition (Enterovirus A71 [2]): Dose-dependent effect; selectivity ratio [5]: > 25; EC50 (Enterovirus A71 [6]): 3920 nM
CN(C)C(=O)Oc1ccc2c(=O)n(Cc3cccc(NS(=O)(=O)NCc4ccccc4)c3F)c(=O)oc2c1	1490	–
CN(C)C(=O)Oc1ccc2c(=O)n(Cc3ccccc3NS(C)(=O)=O)c(=O)oc2c1	> 10000	–
CCS(=O)(=O)Nc1cccc(Cn2c(=O)oc3cc(OC(=O)N(C)C)ccc3c2=O)c1F	200	–
CN(C)C(=O)Oc1ccc2c(=O)n(Cc3cccc([N+](=O)[O-])c3)c(=O)oc2c1	> 10000	–
CN(C)C(=O)Oc1ccc2c(=O)n(Cc3cccc(NS(N)(=O)=O)c3F)c(=O)oc2c1	840	–
CNC(=O)c1cc(Oc2ccc(NC(=O)Nc3ccc(Cl)c(C(F)(F)F)c3)cc2)ccn1 [SORAFENIB]	–	CC50 at 24 h [3]: 7.05 µM
CNS(=O)(=O)Nc1cccc(Cn2c(=O)oc3cc(OC(=O)C(C)C)ccc3c2=O)c1F	720	–
CN(C)C(=O)Oc1ccc2c(=O)n(Cc3ccc(F)c(NS(C)(=O)=O)c3)c(=O)oc2c1	9870	–
CN(C)C(=O)Oc1ccc2c(=O)n(Cc3ccc(NS(C)(=O)=O)cc3)c(=O)oc2c1	> 10000	–
CCCC(=O)Oc1ccc2c(=O)n(Cc3cccc(NS(=O)(=O)NC)c3F)c(=O)oc2c1	1200	–
CNS(=O)(=O)Nc1cccc(Cn2c(=O)oc3cc(OC(=O)N(C)C)ccc3c2=O)c1F	55	CC50 at 24 h [3]: > 100 µM; inhibition [4]: Active; inhibition (Enterovirus A71 [2]): Dose-dependent effect; selectivity ratio [5]: > 98; IC50 [7]: 54 nM; IC50 [8]: 56 nM; IC50 [9]: 181 nM; EC50 (Enterovirus A71 [6]): 1020 nM; inhibition [10]: Active
CNS(=O)(=O)Nc1cccc(Cn2c(=O)oc3cc(OC(C)=O)ccc3c2=O)c1F	610	–
CNS(=O)(=O)Nc1cccc(Cn2c(=O)oc3cc(OS(C)(=O)=O)ccc3c2=O)c1F	2540	–
CN(C)C(=O)Oc1ccc2c(=O)n(Cc3cccc(NS(=O)(=O)NCC(F)(F)F)c3F)c(=O)oc2c1	420	–
CN(C)C(=O)Oc1ccc2oc(=O)n(Cc3cccc(NS(C)(=O)=O)c3F)c(=O)c2c1	> 10000	–
CN(C)C(=O)Oc1ccc2c(=O)n(Cc3cccc(NS(=O)(=O)Nc4ccccc4)c3F)c(=O)oc2c1	1640	–
